Laboratory results as given in patent US6994987B1, “Process for producing tripeptides” (Calpis Co., Ltd., priority 1999, dated 2006).
No end group written: not given here.

Assays:
[1] = target: T1, Carboxypeptidase Y (Saccharomyces cerevisiae, UniProt P00729); test: Reactivity of peptidase formulations against synthetic peptides: carboxypeptidase Y alone; format: biochemical; details: for Existence of IPP or VPP peaks: no aminopeptidase, carboxypeptidase Y, phosphate buffer pH 5.3, 37° C. 3 hours, HPLC
T1 construct: purchased Sigma Chemical Co
T1 sequence (P00729 112-532): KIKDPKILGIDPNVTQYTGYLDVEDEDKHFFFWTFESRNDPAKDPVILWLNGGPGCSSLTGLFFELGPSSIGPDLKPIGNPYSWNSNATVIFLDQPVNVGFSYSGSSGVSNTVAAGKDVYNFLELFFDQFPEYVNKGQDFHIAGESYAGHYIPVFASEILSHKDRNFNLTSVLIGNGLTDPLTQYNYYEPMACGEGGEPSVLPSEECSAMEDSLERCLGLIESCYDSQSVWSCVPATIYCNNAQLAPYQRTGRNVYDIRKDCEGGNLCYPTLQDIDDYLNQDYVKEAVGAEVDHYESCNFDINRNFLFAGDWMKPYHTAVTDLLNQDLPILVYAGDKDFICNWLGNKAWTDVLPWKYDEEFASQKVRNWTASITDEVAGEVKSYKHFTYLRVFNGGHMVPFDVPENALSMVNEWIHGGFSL
Procedure: (§1) Peptides shown in Table 1 were chemically synthesized. […] All of these synthetic peptides were synthesized with the automatic peptide synthesizing machine PPSM-8 (manufactured by Shimadzu Corporation).
(§2) Each synthetic peptide was dissolved at the concentration of 10 μg/ml in 100 mM phosphate buffer pH 5.3 as to Experiments 1-1 to 1-4, 1-10 to 1-12, 1-16 and 1-21, or in 50 mM Tris-HCl buffer pH 8.0 as to other Experiments. Each of various peptidase formulations shown in Table 1 was then added so that the concentration thereof became 0.01 μg/ml, and the reaction was performed at 37° C. for 3 hours. After the enzyme reaction, the mixture was analyzed by the reverse phase high performance liquid chromatography (HPLC). […] The fractions of the detected peak were collected and amino acid sequence analysis was performed by the automatic peptide analyzer model PPSQ-10 (manufactured by Shimadzu Corporation). […]

[2] = system: fraction 4 (peptidase derived from Lactobacillus helveticus); test: Reaction of fraction 4 with chemically synthesized intermediate peptides as substrates; format: biochemical; details: substrate peptide reacted with fraction 4, HPLC
Procedure: A milk medium containing 9 wt % skim milk was inoculated with lactic acid bacteria Lactobacillus helveticus CM4 strain (deposited at National Institute of Bioscience and Human-Technology (1-3, Higashi 1 chome Tsukuba-shi Ibaraki-ken 305, Japan) under deposition number FEFM BP-6060 on Aug. 15, 1997) (referred to hereinbelow as CM4 strain). The bacteria were cultured at 37° C. for 24 hours. The CM4 strain has been accorded the aforementioned accession number under the Budapest Treaty on the International Recognition of the Deposit of Microorganisms for the Purposes of Patent Procedure. All restrictions on the availability to the public of this strain will be irrevocably removed upon the granting of a patent. To 500 ml of a fresh 9 wt % milk medium, cultured mixture was added at 5 wt %. […] was performed at 37° C. and at the pH of 6.5. Five hours after the start of pH stat culturing, sodium citrate was added so that the final concentration thereof became 2 wt %. The mixture was stirred for 30 minutes at room temperature. After confirming that the cultured liquid became clear, cell bodies were collected by centrifugation at 5000 g for 10 minutes. The cell bodies were washed twice with 50 mM phosphate buffer containing 150 mM NaCl pH 6.8, and suspended in 20 ml of 50 mM tris-Cl pH 8.0, and then crushed with an ultrasonic crusher (model 5203, manufactured by Ohtake Works Co.). Centrifugation at 15000 g was performed for 10 minutes for removing the precipitant and collecting the supernatant as a crude extract. 5 ml of the crude extract was passed through 1 ml of DEAE-sepharose column (manufactured by Pharmacia Corporation) that has been pre-equilibrated with the tris buffer. The column was washed with 5 ml of the tris buffer and then sequentially washed with 3 ml of tris buffers containing 50 mM, 100 mM, 150 mM, 200 mM, 300 mM and 500 mM NaCl, for fractionation.
An intermediate peptide Val-Pro-Pro-Phe-Leu was chemically synthesized. The synthesized peptide was dissolved at 10 μg/ml in 100 mM phosphate buffer (pH 6.1). This solution and one of the fractions 1 to 6 were mixed at the volume ratio of 9:1, and reacted at 37° C. for 30 minutes.
Further, it was confirmed that the tripeptide Ile-Pro-Pro was produced from the peptides Ile-Pro-Pro-Leu-Thr-Gln-Thr and Ile-Pro-Pro-Leu-Thr.

[3] = system: hypertensive patients; details: known in the prior art; cited from earlier work
[4] = system: spontaneous hypertension rats (SHR); details: known in the prior art; cited from earlier work
[5] = reported in JP-A-11-100328; cited from earlier work
[6] = target: angiotensin converting enzyme (ACE) (Homo sapiens, UniProt P12821); details: known in the prior art; cited from earlier work
[7] = system: synthetic peptide consisting of the 28 amino acids (SEQ ID NO: 28); test: Two step reaction of proteinase and fraction 4 on the 28 amino acid synthetic peptide; format: biochemical; details: proteinase 0.1 μg/ml on 28-mer 10 μg/ml, pH 6.1, 37° C. 5 hours, heat inactivation, then fraction 4; HPLC
Procedure: To 10 μg/ml of the synthetic peptide consisting of the 28 amino acids that is the same as the one used in Experiment 2 (in 100 mM phosphate buffer pH 6.1), each of the commercially available proteinase enzymes for food processing shown in Table 4 was added at 0.1 μg/ml. The mixture was reacted at 37° C. for 5 hours. After finishing the reaction, the reacted liquid was heated at 100° C. for 5 minutes for inactivating the proteinase, and then reacted with the fraction 4 obtained in Experiment 4.

[8] = system: Aminipeptidase I + Carboxypeptidase Y; test: Reactivity of peptidase formulations against synthetic peptides: aminopeptidase I + carboxypeptidase Y; format: biochemical; details: phosphate buffer pH 5.3, 37° C. 3 hours, HPLC
Procedure: as §1, §2

Chain of angiotensin converting enzyme (ACE) (P12821 30-1306, species assumed): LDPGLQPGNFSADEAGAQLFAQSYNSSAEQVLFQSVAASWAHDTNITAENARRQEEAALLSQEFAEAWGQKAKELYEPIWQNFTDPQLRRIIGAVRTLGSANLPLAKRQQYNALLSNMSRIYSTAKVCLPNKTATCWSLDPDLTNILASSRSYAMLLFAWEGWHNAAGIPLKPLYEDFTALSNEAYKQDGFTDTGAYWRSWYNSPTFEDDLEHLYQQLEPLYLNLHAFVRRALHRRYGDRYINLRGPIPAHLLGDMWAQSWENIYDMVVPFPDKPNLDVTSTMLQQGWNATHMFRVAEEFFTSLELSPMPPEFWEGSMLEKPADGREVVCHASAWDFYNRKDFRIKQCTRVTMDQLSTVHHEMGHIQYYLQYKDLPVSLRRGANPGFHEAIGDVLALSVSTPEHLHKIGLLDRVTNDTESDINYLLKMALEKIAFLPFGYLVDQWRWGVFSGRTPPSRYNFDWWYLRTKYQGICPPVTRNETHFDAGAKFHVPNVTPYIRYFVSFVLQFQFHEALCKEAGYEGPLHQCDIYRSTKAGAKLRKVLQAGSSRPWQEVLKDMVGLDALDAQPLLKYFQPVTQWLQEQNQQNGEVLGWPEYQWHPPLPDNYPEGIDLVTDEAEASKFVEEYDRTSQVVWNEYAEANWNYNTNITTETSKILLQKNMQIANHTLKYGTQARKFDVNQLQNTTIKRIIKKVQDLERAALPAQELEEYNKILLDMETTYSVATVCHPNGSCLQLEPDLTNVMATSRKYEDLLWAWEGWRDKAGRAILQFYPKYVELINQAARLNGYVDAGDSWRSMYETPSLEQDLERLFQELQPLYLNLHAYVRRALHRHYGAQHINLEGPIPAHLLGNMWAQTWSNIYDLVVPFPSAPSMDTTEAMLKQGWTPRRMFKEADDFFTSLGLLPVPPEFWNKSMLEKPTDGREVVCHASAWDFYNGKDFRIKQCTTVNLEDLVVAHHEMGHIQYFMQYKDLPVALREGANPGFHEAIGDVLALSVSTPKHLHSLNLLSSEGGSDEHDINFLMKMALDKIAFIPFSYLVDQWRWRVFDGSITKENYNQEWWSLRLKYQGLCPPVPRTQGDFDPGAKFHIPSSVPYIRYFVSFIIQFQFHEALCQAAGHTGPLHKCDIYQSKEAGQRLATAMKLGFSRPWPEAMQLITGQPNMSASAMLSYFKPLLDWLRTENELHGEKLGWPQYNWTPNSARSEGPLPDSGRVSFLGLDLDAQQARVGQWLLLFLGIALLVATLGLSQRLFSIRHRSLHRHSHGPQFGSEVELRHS

Q: For IPPLTQT, which “Existence of IPP or VPP peaks” value [1] is on record?
A: Its value is “IPP”.

Q: What about the Peptide produced [2] of the same molecule?
A: The Peptide produced was “Ile Pro Pro”.

Q: And the Peptide produced ([2]; listed as Ile-Pro-Pro-Leu-Thr-Gln-Thr)?
A: The Peptide produced was “Ile-Pro-Pro”.

Q: Which “anti-hypertensive effect on hypertensive patients” value [3] does the source give for “Ile Pro Pro (IPP) [Ile-Pro-Pro, tripeptide produced by the method]” here?
A: Its value is “anti-hypertensive effect”.

Q: What about the “anti-hypertensive activity on spontaneous hypertension rats (SHR)” value [4] of the same molecule?
A: Its value is “strong anti-hypertensive activity”.

Q: And the anti-stress activity [5]?
A: Its anti-stress activity is “anti-stress activity”.

Q: And the ACE inhibitory activity [6]?
A: The ACE inhibitory activity was “strong”.

Q: Which Peptide produced [2] does the source give for Ile Pro Pro Leu Thr (IPPLT) here?
A: Its Peptide produced is “Ile Pro Pro”.

Q: What about the Peptide produced ([2]; listed as Ile-Pro-Pro-Leu-Thr) of the same molecule?
A: Its Peptide produced is “Ile-Pro-Pro”.

Q: With Leu-Pro-Pro [reference compound] as the molecule, how does the ACE inhibitory activity [6] read?
A: Its ACE inhibitory activity is “ACE inhibitory activity”.

Q: For Pepsin, which “Production of the tripeptides Ile-Pro-Pro and Val-Pro-Pro” value (“Production” for short) [7] is on record?
A: Its value is “No”.

Q: With QNIPPLTQT as the molecule, how does the “Existence of IPP or VPP peaks” value [8] read?
A: The value was “IPP”.

Q: What about the “Existence of IPP or VPP peaks” value ([8]; listed as Gln-Asn-Ile-Pro-Pro-Leu-Thr-Gln-Thr) of the same molecule?
A: Its value is “production of the tripeptides Ile-Pro-Pro or Val-Pro-Pro was also recognized”.

Q: Which results are given for VPPFLQ?
A: Existence of IPP or VPP peaks [1]: VPP; Peptide produced [2]: Val Pro Pro; Peptide produced ([2]; listed as Val-Pro-Pro-Phe-Leu-Gln): Val-Pro-pro

Q: Which “Existence of IPP or VPP peaks” value [8] does the source give for VVVPPFLQ here?
A: Its value is “VPP”.

Q: And the “Existence of IPP or VPP peaks” value ([8]; listed as Val-Val-Val-Pro-Pro-Phe-Leu-Gln)?
A: Its value is “production of the tripeptides Ile-Pro-Pro or Val-Pro-Pro was also recognized”.

Q: Which “anti-hypertensive effect on hypertensive patients” value [3] does the source give for “Val Pro Pro (VPP) [Val-Pro-Pro, tripeptide produced by the method]” here?
A: Its value is “anti-hypertensive effect”.

Q: And the “anti-hypertensive activity on spontaneous hypertension rats (SHR)” value [4]?
A: The value was “strong anti-hypertensive activity”.

Q: What about the anti-stress activity [5] of the same molecule?
A: Its anti-stress activity is “anti-stress activity”.

Q: For Val Pro Pro Phe (VPPF), which “Existence of IPP or VPP peaks” value [1] is on record?
A: The value was “VPP”.

Q: Which Peptide produced [2] does the source give for Val Pro Pro Phe Leu (VPPFL) here?
A: Its Peptide produced is “Val Pro Pro”.

Q: And the Peptide produced ([2]; listed as Val-Pro-Pro-Phe-Leu)?
A: The Peptide produced was “Val-Pro-pro”.

B1: carboxy peptidase Y: Carboxypeptidase Y (manufactured by Sigma Chemical Co.) (protein, UniProt P00729 112-532, looked up)
Carboxypeptidase Y: T1 sequence (P00729 112-532)
Q: Which “Bond cleavage by the enzyme (in words)” value ([1]; reaction at pH 5.3) does the source give for B1 here?
A: Its value is “capable of effectively cleave the bond between Pro and Leu in Pro-Pro-Leu and the bond between Pro and Phe in Pro-Pro-Phe”.

B2: Subtilisin Carlsberg: proteinase, Bacillus licheniformis, Sigma Chemical Co. (protein, UniProt P00780 106-379, looked up)
Subtilisin Carlsberg: AQTVPYGIPLIKADKVQAQGFKGANVKVAVLDTGIQASHPDLNVVGGASFVAGEAYNTDGNGHGTHVAGTVAALDNTTGVLGVAPSVSLYAVKVLNSSGSGSYSGIVSGIEWATTNGMDVINMSLGGASGSTAMKQAVDNAYAKGVVVVAAAGNSGSSGNTNTIGYPAKYDSVIAVGAVDSNSNRASFSSVGAELEVMAPGAGVYSTYPTNTYATLNGTSMASPHVAGAAALILSKHPNLSASQVRNRLSSTATYLGSSFYYGKGLINVEAAAQ
Q: For B2, which “Production” value [7] is on record?
A: Its value is “No”.

B3: Subtilisin BPN: proteinase, Bacillus amyloliquefaciens, Sigma Chemical Co. (protein, UniProt P00782 108-382, looked up)
Subtilisin BPN': AQSVPYGVSQIKAPALHSQGYTGSNVKVAVIDSGIDSSHPDLKVAGGASMVPSETNPFQDNNSHGTHVAGTVAALNNSIGVLGVAPSASLYAVKVLGADGSGQYSWIINGIEWAIANNMDVINMSLGGPSGSAALKAAVDKAVASGVVVVAAAGNEGTSGSSSTVGYPGKYPSVIAVGAVDSSNQRASFSSVGPELDVMAPGVSIQSTLPGNKYGAYNGTSMASPHVAGAAALILSKHPNWTNTQVRSSLENTTTKLGDSFYYGKGLINVQAAAQ
Q: For B3, which “Production” value [7] is on record?
A: The value was “No”.

B4: Trypsin (Type I): proteinase, bovine pancreas, Sigma Chemical Co. (protein, UniProt P00760 24-246, looked up)
Serine protease 1: IVGGYTCGANTVPYQVSLNSGYHFCGGSLINSQWVVSAAHCYKSGIQVRLGEDNINVVEGNEQFISASKSIVHPSYNSNTLNNDIMLIKLKSAASLNSRVASISLPTSCASAGTQCLISGWGNTKSSGTSYPDVLKCLKAPILSDSSCKSAYPGQITSNMFCAGYLEGGKDSCQGDSGGPVVCSGKLQGIVSWGSGCAQKNKPGVYTKVCNYVSWIKQTIASN
Q: With B4 as the molecule, how does the “Production” value [7] read?
A: The value was “No”.
